Patent US11918550B2, “Sensitization of cancer cells to differentiation therapy with mitochondrial uncoupler niclosamide ethanolamine” (The Board of Trustees of the Leland Stanford Junior …, priority 2020, dated 2024)

Tests used:
N-Myc = N-Myc mRNA and protein levels (qPCR, western blot); format: cell-based; settings: SK-N-BE(2) cells, 1 μM NEN
Procedure: Protein extraction and immunoblot. Cells were washed with ice-cold PBS buffer (Invitrogen, 20012050) and lysed with harvest buffer (10 mM Hepes pH 7.9, 50 mM NaCl, 500 mM sucrose, 0.1 mM EDTA and 0.5% Trition X-100) supplemented with 1% Halt inhibitors (Thermo Scientific™, 78443) for 10 minutes. Cell lysate was centrifuged at 3000 rpm for 3 min at 4° C. The supernatant containing cytosolic proteins was transferred to a different tube. The pellet containing nuclear proteins was dissolved with nuclear lysis buffer (10 mM Hepes pH 7.9, 0.5M NaCl, 0.1 mM EDTA, 0.1 mM EGTA and 0.1% NP40) supplemented with 1% Halt inhibitors (Thermo Scientific™, 78443) for 5 minutes at 4° C. Then the solution was sonicated at 4° C. for 6 cycles (1 cycle=30 s sonication and 30 s cooldown with “High” energy intensity) using a Bioruptor® Plus sonication (Diagenode, UCD-300). After sonication, the solution was centrifuged at 15,000 rpm for 10 minutes. The supernatant was kept as nuclear extraction. Protein concentration was determined by BCA assay (Thermo Scientific, 23227). […] Signals were detected with an ECL kit (Thermo Scientific™, 34577) by using BioRad Universal Hood II. […] Quantitative PCR amplification was performed on the Prism 7900 Sequence Detection System (Applied Biosystems) using Taqman Gene Expression Assays (Applied Biosystems). […]

SK-N-BE(2) cells = assay: 1-13C-glutamine tracing of reductive carboxylation under normoxia or hypoxia; format: cell-based; settings: 1 μM NEN
Procedure: Metabolic analysis. For the metabolomics and isotope tracing analysis in vitro, cells were washed with cold PBS, lysed in 80% Ultra LC-MS acetonitrile on ice for 15 minutes, centrifuged at 20,000 g for 10 minutes at 4° C., and supernatant was subjected to mass spectrometry analysis. For the metabolomics analysis in vivo, 10-20 mg tissue were cut off on ice, rinsed if necessary to remove blood, and place in a 2 ml round-bottom cryovial. The tissues were homogenized by 3 times 10 s on/off bursts homogenization in 1 ml 80% methanol on dry ice. Transfer the homogenate to an Eppendorf tube and keep on liquid nitrogen while processing the remaining samples. Incubated all the samples in −80° C. for 30 minutes. After incubation, vortexed the samples for 5 seconds. Then centrifuged the samples at 20,000 g for 10 minutes at 4° C., and supernatant was subjected to mass spectrometry analysis. Resuspend the remaining cellular pellet in 100 ul protein lysis buffer and determine the protein concentration. Then calculate the total protein content per sample.
Liquid chromatography was performed using an Agilent 1290 Infinity LC system (Agilent, Santa Clara, US) coupled to a Q-TOF 6545 mass spectrometer (Agilent, Santa Clara, US). […]

[1] = system: orthotopic neuroblastoma xenograft (SK-N-BE(2) cells); assay: H&E histology and immunohistochemistry of orthotopic tumors; format: in vivo, mice; settings: diet 2000 ppm NEN vs control

O=C(Nc1ccc([N+](=O)[O-])cc1Cl)c1cc(Cl)ccc1O [NEN, 5-chloro-N-(2-chloro-4-nitrophenyl)-2-hydroxybenzamide compound with 2-aminoethanol (1:1)]
mRNA level of N-Myc (N-Myc): significantly reduced
protein level of N-Myc (N-Myc): significantly reduced
hypoxia-induced reductive carboxylation flux (SK-N-BE(2) cells; hypoxia (0.5% oxygen)): fully repressed
basal reductive carboxylation flux (SK-N-BE(2) cells; normoxia): reduced
N-Myc protein expression in xenografts (IHC) [1]: significantly reduced
enlarged prominent nucleoli in tumor cells (H&E) [1]: much fewer
β-catenin protein expression in xenografts (IHC) [1]: significantly reduced
